This note sets out measurements from US11672786B2, “Methods of treating diseases associated with repeat instability” (The Hospital for Sick Children, priority 2016, dated 2023).

One experiment deals with HD fibroblasts (CAG)180. Kind of experiment: small-pool PCR across HD repeat tract, HD primary fibroblasts GM09197. As to conditions: 50 uM NA, 40 days. It is filed as cell-based, human. The method, then:
The construction of the HT1080-(CAG)850 cell model was described previously (Sathasivam et al., 1997, Hum. Genet., 99:692-5). Briefly, HT1080 (ATCC) human fibrosarcoma cells were co-transfected with a plasmid (LC15-R) containing 800-850 (CTG)●(CAG) repeats (Nakatani et al., 2005, Nat. Chem. Biol., 1:39-43) and a plasmid encoding PhiC31 integrase. Transfection was performed with a Nucleofector (Lonza, Basel, Switzerland), and stably transfected clones were selected with puromycin. […] The HT1080-non-transcribing (CAG)850 cell model was established by transfecting a plasmid modified from pLC16 by inserting an additional SV40 polyadenylation signal downstream of the repeats (in addition to the original polyadenylation signals located upstream of the repeats), so that CAG/CTG repeats are floxed by transcription-terminator elements. The AttB-PhiC31 system has been widely used for single copy integration. […] The HT1080 model cells and an HD primary fibroblast cell line, GM09197 (Coriell Biorepository) with a large expanded allele of 180 CAG repeats and a non-expanded allele of 23 repeats (Sathasivam et al., 1997, Hum. Genet., 99:[…]), the HD primary fibroblast cell line, GM02191 (Coreill Biorepository) with an expanded allele of 43 CAG repeats and a non-expanded allele of 19 repeats, were cultured at 37° C. with 5% CO2 in Dulbecco's modified Eagle's medium supplemented with 10% fetal bovine serum and 1% penicillin/streptomycin. Cells were treated with or without continuous exposure to 50-μM NA for 30 days (HT1080 cells) or for 40 days (fibroblast cells). For experiments on non-proliferating cells, HT1080 cells were grown to confluence and then treated for the same period. WST-1 assay was performed according to the manufacturer's instructions (Roche, Basel, Switzerland). All cell lines were tested to be free of Mycoplasma. Three biological replicates were performed for each experiment.
Genomic DNA was extracted from HT1080-(CAG)850 clones and HD primary fibroblasts using the Gentra Puregene Cell Kit (Qiagen, Valencia, Calif.). The expanded (CTG)●(CAG) repeats were sized by small-pool PCR (sp-PCR) followed by Southern blot as described previously (Sathasivam et al., 1997, Hum. Genet., 99:692-5). For HT1080 models, small-pool PCR (spPCR) was performed with the input of 1.4-1.7 genome equivalents. The repeat size difference in the models is, at most, 3000 base-pairs, therefore, being strictly conservative, a bias toward amplifying the shorter allele can be possible, even under optimized PCR conditions described herein. For HD primary fibroblasts, sp-PCR & Southern blots were performed as described previously with slight modifications (Tome et al., 2013, PLoS Genet., 9:e1003280). Briefly, the PCR primers listed in Table 1 were used, and blots were hybridized with a DIG-labeled (CAG)7 locked nucleic acid probe (Nakamori et al. 2009, Neuromuscul. Disord., 19:759-62). At least 50 alleles were analyzed for each of the three experiments (more than 150 alleles for a total study). Repeat analyses are summarized in Table 2, compiled from complete small-pool-PCR datasets for each repetition of each experiment. For the histograms in FIGS. 4D, 4E, 10, 11, 5B, 5D, 5E, 14 and 15B, the Y-axis, “% of repeat population” was calculated by determining the proportion of >50 individual small-pool PCR reactions across the CAG repeat tract, that harbored a certain size of repeat product with a certain length. Cell clones were grown 30 or 40 days with or without NA (see, for example, Sathasivam et al., 1997, Hum. Genet., 99:692-5). Specifically, the histograms of repeat length distributions were from at least two different cell clones. Length distributions were determined as follows: Small-pool PCR followed by Southern blot for analysis of CAG/CTG repeat length.

In experiment [1] the test system is transgene transcript in the CAG-direction, HT1080-(CAG)850 cells. Kind of experiment: transgene mRNA quantification by quantitative RT-PCR. It is filed as cell-based, human. The conditions noted are these: NA 50 μM, 72 hr. An excerpt:
FIG. 5 are results from experiments showing that NA induces CAG contractions in HT1080-(CAG)850 cells, independent of proliferation, dependent upon rCAG transcription. […] Panel B of FIG. 5 are histograms showing repeat length distributions in HT1080-(CAG)850 cells. Frequency distribution of unstable alleles is shown by gray bars. Frequency of stable alleles is shown by black bars. To facilitate comparisons, a dashed line indicates the unchanged CAG size. Allele lengths are grouped in bins spanning 50 repeats. […] More than 50 alleles were sized for each group. P-value was calculated by chi-square test (Table 2). […] P-value was calculated by Student's t-test. […] Quantitative reverse transcription (RT)-PCR was performed using TaqMan Gene Expression assays. […]
RNA was harvested from the HT1080-(CAG)850 cells at 72 hr after adding or not adding NA using the RNeasy Plus Micro Kit (Qiagen). Total RNA was primed with random hexamers and reverse transcribed with Superscript III (Life Technologies, Carlsbad, Calif.), followed by treatment with RNase H. Quantitative reverse transcription (RT)-PCR was performed using TaqMan Gene Expression assays or PrimeTime qPCR assays on an ABI PRISM 7900HT Sequence Detection System (Life Technologies) and the primer sequences shown in Table 1. […] The results were statistically analyzed using paired t-tests. […]

[2] abbreviates: single experiments Ex 1-3, cut-off ±10 repeats.

“And” between values parts separate entries of the source, which are not always exact repeats. Equal entries are not always repeated.

Turning to naphthyridine-azaquinolone, in the experiment with HD fibroblasts (CAG)180 (Total), the “% Contraction” value amounted to 31.2%, the “% Expansion” value is given as 13.6%, the “% Unchanged” value was 55.2% and the Average repeat size is reported as 177.5 number of repeats. In addition, in the experiment on HD fibroblasts (CAG)180 (single experiments Ex 1-3), the “% Unchanged” value was 58.6% and 56.1% and 50.9%; the Average repeat size is 178.5 number of repeats and 176.5 number of repeats and 177.5 number of repeats. Besides, in the experiment on HD fibroblasts (CAG)180 (setting [2]), the “% Contraction” value was 28.8% and 30.8% and 34.0%; the “% Expansion” value is 12.6% and 13.1% and 15.1%. Also, in experiment [1], the “effect on RNA transcript levels of transgene” value is given as “did not affect transcription of the CAG-repeats containing transcript”.
